PMC8565742 (PLoS Neglected Tropical Diseases, 2021)
Read-outs that look alike come from different tables or passages of the source.

Assays:
[1] = tested on: untransfected HEK293 cells; assay: Counterscreen, agonist mode, Ca2+ signal in untransfected HEK cells; type: cell-based; conditions: for EC50: Homo sapiens, HEK293, unit inferred, read-out: HEK AG Final EC50; for EC50 / HEK AG Averaged Max % Response: counterscreen titration
Method: (§1) HEK cells were transfected with cDNA (400μg/ml DNA) encoding Sm.TRPMPZQ using a Maxcyte STX electroporation system and incubated overnight at 37°C. This system is uniquely capabable of large scale transfections providing one batch of cells ready for large scale HTS [30]. Briefly, the HEK cells were resuspended at 10^8/ml in Maxcyte electroporation buffer. Plasmid DNA was added to the cells in buffer to achieve a concentration of 400 μg/ml from a stock of 5mg/ml (in TE buffer). This mixture was loaded into the appropriate cassette, inserted into the machine, and cells electroporated. Cells were then frozen to provide a single supply of transfected cells for all subsequent assays. On the day of the assays, cells were thawed in a 37°C waterbath, and resuspended in DMEM + 10% FBS and counted. The cells were pelleted by centrifugation at 170xg for 5 minutes. The media was aspirated, and the remaining pellet was resuspended in 1x HBSS with 20 mM HEPES and 1% DMSO to achieve 1.33x10^6cells/ml. This cell suspension was then dispensed at 3 μl/well to the 1536 well plates (Greiner Bio One part 789072) at a density of 4,000 cells/well. Measurements of fluorescence intensity (λex = 470 nm, λem = 535 nm) were made using a FLIPR (Molecular Devices FLIPR Tetra). A read of basal fluorescence values was made (5s) prior to addition of compounds or controls (30 nl). In both ‘agonist’ and ‘antagonist mode’, the total assay volume was 6μl (1% DMSO). […] Ligand performance was categorized using an algorithm based on the activity of the entire dataset to define a ‘hit-cutoff’ parameter for both agonist-mode and antagonist-mode screening. Any compound with greater percent activation than this cutoff was assigned as ‘active’ prior to titration and counter-screening. Titration assays were executed using the same reagents, protocols and detection systems, done as 10-point concentration-response curves, performed in triplicate. Counter-screening was performed using untransfected HEK293 cells for comparison with results testing the same compounds effect on cells expressing Sm.TRPMPZQ, with ATP used as the positive control. For each compound, activity was plotted against compound concentration and data were fitted with a sigmoidal function. In order to be considered a hit at this stage a compound must achieve a EC50<5 μM for agonists and IC50 <5 μM for antagonists. All compounds selected for titration were subjected to LC-MS analysis to confirm mass and sample purity. ChemAxon (https://www.chemaxon.com) academic licensing was provided for the use of Instant JChem (ver. 15.10.12.0) to perform compound mining of the libraries utilized in this effort.

Sm.TRPMPZQ [2] = molecular target: T1, Sm.TRPMPZQ (Schistosoma mansoni, UniProt A0A5K4F0X5); assay: cell-based
Method: as §1, with “Any compound with greater percent activation than this cutoff was assigned as ‘active’ prior to titration and counter-screening.” left out, “In order to be considered a hit at this stage a compound must achieve a EC50<5 μM for agonists and IC50 <5 μM for antagonists. All compounds selected for titration were subjected to LC-MS analysis to confirm mass and sample purity.” left out

Sm.TRPMPZQ [3] = molecular target: T1, Sm.TRPMPZQ; assay: Single channel recording, inside-out patch, HEK293 stably expressing Sm.TRPMPZQ; type: biochemical; conditions: for mean slope single-channel conductance: agonist 10 μM, Ca2+-free, inside-out, mean ± SD
Method: For electrophysiological analysis, a HEK293 cell line stably expressing Sm.TRPMPZQ [7] was generated using the Flp-In T-REx system (K650001, Thermofisher Scientific, Carlsbad, CA). Flp-In T-REx HEK293 cells were cultured in Dulbecco’s modified Eagle’s medium supplemented with 10% fetal bovine serum, penicillin (100 units/ml), streptomycin (100 μg/ml), L-glutamine (290 μg/ml), blasticidin (10 μg/ml), and hydromycin B (100 μg/ml). HEK293 cells were plated onto glass coverslips and Sm.TRPMPZQ expression induced by addition of tetracycline (2 μg/ml) to the media 24–48 hours before recording. Prior to recording, coverslips were secured within a recording chamber of an Olympus BX51WI upright microscope. Cells were bathed in a solution containing 145 mM KCl, 10 mM HEPES, 1 mM EGTA (pH 7.2, 310–315 mOsm/kg with sucrose). The pipette solution contained 140 mM LiCl, 10 mM HEPES, 1 mM EGTA (pH 7.4, 280–285 mOsm/kg with sucrose). Patch pipettes were made of borosilicate glass (BF150-110-10, Sutter Instrument, Novato, CA) pulled on a vertical puller (Narishige, Amityville, NY, Model PC-10) with resistances 8–10 MΩ. […] Signals were filtered with an 8-pole Bessel low pass filter at 1 kHz, and sampled at 20 kHz. Open probability (Popen) was assessed in single channel search mode using Clampfit 10 software. All recordings were done at room temperature. Data represent mean±standard error for ≥3 independent experiments.

[4] = S2 Table, titration, listed as SR-01000003100-19

T1 sequence (A0A5K4F0X5 entry or part of it): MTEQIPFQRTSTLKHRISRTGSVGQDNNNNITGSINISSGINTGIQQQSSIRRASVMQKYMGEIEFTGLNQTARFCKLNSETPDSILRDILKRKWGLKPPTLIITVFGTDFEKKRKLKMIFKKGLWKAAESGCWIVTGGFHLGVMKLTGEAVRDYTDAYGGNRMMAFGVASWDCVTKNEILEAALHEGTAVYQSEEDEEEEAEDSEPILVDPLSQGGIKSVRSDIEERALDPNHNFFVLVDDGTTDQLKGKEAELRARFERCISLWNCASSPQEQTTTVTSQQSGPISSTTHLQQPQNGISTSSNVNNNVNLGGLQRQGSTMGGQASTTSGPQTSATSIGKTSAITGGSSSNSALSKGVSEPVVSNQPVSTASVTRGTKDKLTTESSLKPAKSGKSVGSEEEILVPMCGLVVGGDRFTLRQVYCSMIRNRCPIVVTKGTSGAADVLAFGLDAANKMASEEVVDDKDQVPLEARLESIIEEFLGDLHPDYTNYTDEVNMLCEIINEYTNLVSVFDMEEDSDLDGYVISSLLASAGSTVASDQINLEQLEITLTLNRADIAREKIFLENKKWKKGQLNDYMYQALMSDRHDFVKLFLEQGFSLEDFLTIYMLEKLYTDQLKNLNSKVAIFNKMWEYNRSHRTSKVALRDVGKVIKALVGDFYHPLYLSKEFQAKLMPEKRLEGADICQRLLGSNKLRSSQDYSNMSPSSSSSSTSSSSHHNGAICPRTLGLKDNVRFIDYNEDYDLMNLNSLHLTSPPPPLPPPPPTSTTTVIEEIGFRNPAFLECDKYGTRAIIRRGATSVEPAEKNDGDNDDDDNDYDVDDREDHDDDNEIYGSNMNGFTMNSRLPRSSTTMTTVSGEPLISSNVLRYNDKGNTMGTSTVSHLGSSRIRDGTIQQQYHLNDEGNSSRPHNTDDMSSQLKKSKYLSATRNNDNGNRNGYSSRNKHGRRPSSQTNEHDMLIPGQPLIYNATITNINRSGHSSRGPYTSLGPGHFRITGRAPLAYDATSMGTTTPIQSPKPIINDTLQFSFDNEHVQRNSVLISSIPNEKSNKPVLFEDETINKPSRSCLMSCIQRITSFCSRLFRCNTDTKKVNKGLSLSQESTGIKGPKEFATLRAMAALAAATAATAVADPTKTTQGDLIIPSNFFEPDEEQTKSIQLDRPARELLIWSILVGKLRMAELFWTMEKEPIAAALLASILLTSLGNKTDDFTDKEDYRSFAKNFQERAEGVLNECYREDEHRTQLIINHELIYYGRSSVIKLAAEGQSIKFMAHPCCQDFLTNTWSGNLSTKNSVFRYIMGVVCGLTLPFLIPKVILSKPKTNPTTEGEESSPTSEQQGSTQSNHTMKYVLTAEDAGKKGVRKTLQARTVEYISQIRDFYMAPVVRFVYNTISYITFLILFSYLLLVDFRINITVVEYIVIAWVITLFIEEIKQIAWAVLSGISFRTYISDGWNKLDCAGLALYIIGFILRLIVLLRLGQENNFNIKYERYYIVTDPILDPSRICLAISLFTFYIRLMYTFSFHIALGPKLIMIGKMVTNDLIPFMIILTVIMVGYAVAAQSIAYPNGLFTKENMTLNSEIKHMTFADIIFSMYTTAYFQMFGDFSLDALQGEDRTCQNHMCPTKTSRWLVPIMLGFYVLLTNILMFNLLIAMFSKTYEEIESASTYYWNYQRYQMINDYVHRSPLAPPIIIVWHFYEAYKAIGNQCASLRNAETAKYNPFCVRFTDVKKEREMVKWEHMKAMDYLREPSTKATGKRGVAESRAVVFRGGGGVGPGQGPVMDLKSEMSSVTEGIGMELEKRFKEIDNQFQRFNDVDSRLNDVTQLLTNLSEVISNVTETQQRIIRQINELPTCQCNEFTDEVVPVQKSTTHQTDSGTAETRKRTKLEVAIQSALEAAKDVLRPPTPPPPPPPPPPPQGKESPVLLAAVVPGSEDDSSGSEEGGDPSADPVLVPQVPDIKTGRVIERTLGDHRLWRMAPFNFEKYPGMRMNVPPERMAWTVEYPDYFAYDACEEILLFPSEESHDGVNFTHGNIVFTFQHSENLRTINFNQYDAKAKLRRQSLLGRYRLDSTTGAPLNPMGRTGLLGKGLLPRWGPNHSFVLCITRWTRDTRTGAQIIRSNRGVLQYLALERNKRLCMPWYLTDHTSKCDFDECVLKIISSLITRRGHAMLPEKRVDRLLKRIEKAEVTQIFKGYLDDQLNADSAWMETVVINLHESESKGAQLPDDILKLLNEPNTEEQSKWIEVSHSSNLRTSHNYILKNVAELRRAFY

O=C(C1CCCCC1)N1CC(=O)N2CCc3ccccc3C2C1 (stereo not shown) [PZQ, praziquantel, reference compound]
EC50 ([1]; S2 Table): > 12.4 µM
HEK AG Averaged Max % Response ([1]; S2 Table, listed as SR-01000003100-3): 2.271%
HEK AG Averaged Max % Response ([1]; S2 Table, listed as SR-01000003100-19): 17.5496%
change in basal fluorescence ([1]; ≤30 μM, untransfected HEK293 cells): failed to elicit any change in basal fluorescence
Emax (Sm.TRPMPZQ [2]; HEK293, read-out: Sm.TRPMPZQ AG Averaged Max % Response, S2 Table, titration): 80.3%
Sm.TRPMPZQ AG Hill Slope (Sm.TRPMPZQ [2]; S2 Table, titration, listed as SR-01000003100-3): 1.753
Sm.TRPMPZQ AG Averaged Max % Response (Sm.TRPMPZQ [2]; [4]): 90.5499%
Sm.TRPMPZQ AG Hill Slope (Sm.TRPMPZQ [2]; [4]): 1.657
mean slope single-channel conductance (Sm.TRPMPZQ [3]): 76 ± 8 pS

Cc1onc(-c2ccccc2)c1C(=O)N1CCN(C2c3ccccc3-c3ccccc32)CC1 [ANT1, 1-(9H-fluoren-9-yl)-4-(5-methyl-3-phenyl-1,2-oxazole-4-carbonyl)piperazine]
EC50 ([1]; S3 Table): > 12.4 µM
HEK AG Averaged Max % Response ([1]; S3 Table): 25.3604%
Emax (Sm.TRPMPZQ [2]; HEK293, S3 Table, titration, read-out: Sm.TRPMPZQ AG Averaged Max % Response): 11.6%
EC50 (Sm.TRPMPZQ [2]; S3 Table, 10-point titration in triplicate, unit inferred, read-out: Sm.TRPMPZQ AG Final EC50): > 12.4 µM
effect on single channel open probability (Popen) (Sm.TRPMPZQ [3]; 50 μM, channels activated by PZQ or AG1 (10 μM)): decreased Popen

COc1ccc(-c2nnc3ccc(-c4cccc(C(C)C)c4)cn23)cc1OC [AG1, 3-(3,4-Dimethoxyphenyl)-6-(3-propan-2-ylphenyl)-[1,2,4]triazolo[4,3-a]pyridine]
EC50 ([1]; S2 Table): > 12.4 µM
HEK AG Averaged Max % Response ([1]; S2 Table): 8.295%
activity on counter-screening in naïve HEK cells ([1]; concentration-response): no activity
Emax (Sm.TRPMPZQ [2]; HEK293, S2 Table, titration, read-out: Sm.TRPMPZQ AG Averaged Max % Response): 97.5%
activation at 5 µM (Sm.TRPMPZQ [2]; HEK293, read-out: Bmax, activation in primary screen): 93.9 ± 5.6%
EC50 (Sm.TRPMPZQ [2]; S2 Table, 10-point titration in triplicate, unit inferred, read-out: Sm.TRPMPZQ AG Final EC50): 1.56 µM
Sm.TRPMPZQ AG Hill Slope (Sm.TRPMPZQ [2]; S2 Table, titration): 1.659
agonist efficacy (Sm.TRPMPZQ [2]; concentration-response curve analysis): full agonist
EC50 (Sm.TRPMPZQ [2]; concentration-response of library sample, Ca2+ flux, read-out: EC50): 1.6 ± 0.3 µM
EC50 (Sm.TRPMPZQ [2]; re-sourced, independently procured sample, read-out: EC50): 9.2 µM
mean slope single-channel conductance (Sm.TRPMPZQ [3]): 61 ± 4 pS
